These results are taken from the supplement of paper PMC11208160.
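Also: IS621 recombinase and bridge RNA in Escherichia coli cells.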

The nature of the data set: recombinant barcode read abundance after kanamycin selection (control-corrected) (log10(CPM+1)); higher = more efficient recombination; sequences stand for … in AGTGCAGAGAAAATCGGCCAGTTTTCTCTGCCTGCAGTCCGCATGCCGT…AGATTTATGCAGCGGACTGCCTTTCTCCCAAAGTGATAAACCGGACAGTATCATGGACCGGTTTTCCCGGTAATCCGTATTTGCAAGGTTGGTTTCACT; site = the 11-nt target. Here is the method:
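Pooled E. coli target-specificity screen for the IS621 bridge recombinase. Each library plasmid pairs an 11-nt target (CT core) with a bridge RNA whose target-binding loop (9-nt LTG + 4-nt RTG) is reprogrammed; the rest of the 177-nt WT IS621 bridge RNA scaffold is fixed. The plasmid is co-electroporated with a WT donor plasmid; recombinase is induced with 0.1 mM IPTG and recombinants are selected on kanamycin. Recombinant barcodes are sequenced, converted to CPM, averaged over two biological replicates and corrected by the unselected control CPM. Molecule = full bridge RNA written as DNA: LTG = specificity nt 1-9, RTG = reverse complement of specificity nt 8-11, in the WT scaffold.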
Take “ACTCTGGCTTGGGTTCTAACCTGTTGCCT (site ACACTGGCTAG)”: the “recombinant barcode read abundance (log10)” value came to 0.0916.

For the sequence “ACTCTGGCTTGGGTTCTAACCTGTTGCCT (site ACCCTGGCTAG)”, the “recombinant barcode read abundance (log10)” value was 0.256.

Regarding “ACTCTGGCTTGGGTTCTAACCTGTTGCCT (site ACGCTGGCTAG)”, the “recombinant barcode read abundance (log10)” value was 0.254.

On to “ACTCTGGCTTGGGTTCTAACCTGTTGCCT (site ACTCTGGCTAG)”, for which the “recombinant barcode read abundance (log10)” value amounted to 0.372.

As for “ACTGAGTCTTGGGTTCTAACCTGTTGCAA (site ACTGAGTCTAT)”, the “recombinant barcode read abundance (log10)” value was 0.0772.

Take “ACTGAGTCTTGGGTTCTAACCTGTTGCAA (site ACTGAGTCTTT)”: the “recombinant barcode read abundance (log10)” value stood at 1.87.

As for “ACTGATTCTTGGGTTCTAACCTGTTGCCT (site ACTGATACTAG)”, the “recombinant barcode read abundance (log10)” value was 0.214.

On to “ACTGATTCTTGGGTTCTAACCTGTTGCCT (site ACTGATCCTAG)”, for which the “recombinant barcode read abundance (log10)” value is 0.0546.

Take “ACTGATTCTTGGGTTCTAACCTGTTGCCT (site ACTGATGCTAG)”: the “recombinant barcode read abundance (log10)” value is 0.0541.

As to “ACTGATTCTTGGGTTCTAACCTGTTGCCT (site ACTGATTCTAG)”, the “recombinant barcode read abundance (log10)” value worked out at 1.34.

Turning to “ACTGCGGCTTGGGTTCTAACCTGTTGCCT (site AATTCGGCTAG)”, the “recombinant barcode read abundance (log10)” value amounted to 0.136.

Turning to “ACTGCGGCTTGGGTTCTAACCTGTTGCCT (site ACTGCGGCTAG)”, the “recombinant barcode read abundance (log10)” value was determined as 0.617.

“ACTGCGTCTTGGGTTCTAACCTGTTGCCT (site ACTCCGTCTAG)”: the “recombinant barcode read abundance (log10)” value was 0.119.

“ACTGCGTCTTGGGTTCTAACCTGTTGCCT (site ACTGCGTCTAG)”: the “recombinant barcode read abundance (log10)” value was found to be 1.6.

Regarding “ACTGCTCCTTGGGTTCTAACCTGTTGCCT (site ACTGCTCCTAG)”, the “recombinant barcode read abundance (log10)” value was 0.881.

On to “ACTGCTCCTTGGGTTCTAACCTGTTGCCT (site CTCTGAGCTCT)”, for which the “recombinant barcode read abundance (log10)” value was determined as 0.0903.

With “ACTGGGCCTTGGGTTCTAACCTGTTGCGA (site ACTCGGCCTTC)”, the “recombinant barcode read abundance (log10)” value was determined as 0.191.

Consider “ACTGGGCCTTGGGTTCTAACCTGTTGCGA (site ACTGGGCCTTC)”, for which the “recombinant barcode read abundance (log10)” value came out at 2.67.

As for “ACTGTAACTTGGGTTCTAACCTGTTGCTT (site ACTATAACTAA)”, the “recombinant barcode read abundance (log10)” value was 0.102.

Consider “ACTGTAACTTGGGTTCTAACCTGTTGCTT (site ACTCTAACTAA)”, for which the “recombinant barcode read abundance (log10)” value worked out at 0.0186.

As for “ACTGTAACTTGGGTTCTAACCTGTTGCTT (site ACTGTAACTAA)”, the “recombinant barcode read abundance (log10)” value was determined as 1.06.

As to “ACTGTAACTTGGGTTCTAACCTGTTGCTT (site ACTTTAACTAA)”, the “recombinant barcode read abundance (log10)” value was determined as 0.0634.

In the case of “ACTTCTGCTTGGGTTCTAACCTGTTGCCT (site ACTTCACCTAG)”, the “recombinant barcode read abundance (log10)” value was determined as 0.0609.

Regarding “ACTTCTGCTTGGGTTCTAACCTGTTGCCT (site ACTTCTGCTAG)”, the “recombinant barcode read abundance (log10)” value amounted to 0.528.

In the case of “ACTTGACCTTGGGTTCTAACCTGTTGCAG (site ACTTGACCTCT)”, the “recombinant barcode read abundance (log10)” value is 1.83.

For “ACTTGACCTTGGGTTCTAACCTGTTGCAG (site ATTTGACCTCG)”, the “recombinant barcode read abundance (log10)” value worked out at 0.0223.

Turning to “ACTTGTTCTTGGGTTCTAACCTGTTGCCT (site ACTTGTTCTAG)”, the “recombinant barcode read abundance (log10)” value was 0.567.

“ACTTGTTCTTGGGTTCTAACCTGTTGCCT (site CCTTGTTCTAG)”: the “recombinant barcode read abundance (log10)” value was 0.202.

With “ACTTGTTCTTGGGTTCTAACCTGTTGCCT (site GCTTGTTCTAG)”, the “recombinant barcode read abundance (log10)” value was 0.157.

As to “ACTTGTTCTTGGGTTCTAACCTGTTGCCT (site TCTTGTTCTAG)”, the “recombinant barcode read abundance (log10)” value came to 0.0997.

On to “ACTTTAGCTTGGGTTCTAACCTGTTGCTT (site ACTTGAACTAA)”, for which the “recombinant barcode read abundance (log10)” value was 0.438.

As to “ACTTTAGCTTGGGTTCTAACCTGTTGCTT (site ACTTTAGCTAA)”, the “recombinant barcode read abundance (log10)” value worked out at 0.399.

Consider “AGAAAAGCTTGGGTTCTAACCTGTTGCAA (site AGAAAAGCTTT)”, for which the “recombinant barcode read abundance (log10)” value was 1.06.

Consider “AGAAAAGCTTGGGTTCTAACCTGTTGCAA (site CATGCTTCTAG)”, for which the “recombinant barcode read abundance (log10)” value was 0.295.

As for “AGAAAGGCTTGGGTTCTAACCTGTTGCGC (site AGAAAGGCTGC)”, the “recombinant barcode read abundance (log10)” value was 2.32.

For “AGAAAGGCTTGGGTTCTAACCTGTTGCGC (site GTGGGCACTAG)”, the “recombinant barcode read abundance (log10)” value was determined as 0.0408.

In the case of “AGAACGTCTTGGGTTCTAACCTGTTGCCT (site AGAACGTCTAG)”, the “recombinant barcode read abundance (log10)” value is 1.09.

Take “AGAACGTCTTGGGTTCTAACCTGTTGCCT (site AGAATGTCTAG)”: the “recombinant barcode read abundance (log10)” value turned out to be 0.0292.

For the sequence “AGAACTCCTTGGGTTCTAACCTGTTGCTG (site AGAACTCCTCA)”, the “recombinant barcode read abundance (log10)” value came to 0.323.

Regarding “AGAACTCCTTGGGTTCTAACCTGTTGCTG (site TCTTGCTCTAG)”, the “recombinant barcode read abundance (log10)” value turned out to be 0.0485.

For the sequence “AGAAGTCCTTGGGTTCTAACCTGTTGCGG (site AGAAGTCCTCA)”, the “recombinant barcode read abundance (log10)” value came out at 0.0978.

Regarding “AGAAGTCCTTGGGTTCTAACCTGTTGCGG (site AGAAGTCCTCC)”, the “recombinant barcode read abundance (log10)” value is 1.91.

On to “AGAAGTCCTTGGGTTCTAACCTGTTGCGG (site AGAAGTCCTCG)”, for which the “recombinant barcode read abundance (log10)” value amounted to 0.101.

On to “AGAAGTCCTTGGGTTCTAACCTGTTGCGG (site AGAAGTCCTCT)”, for which the “recombinant barcode read abundance (log10)” value was 1.32.

As for “AGACAGACTTGGGTTCTAACCTGTTGCGT (site AGACAGACTAC)”, the “recombinant barcode read abundance (log10)” value was found to be 3.32.

Consider “AGACAGACTTGGGTTCTAACCTGTTGCGT (site CAGAGCTCTCG)”, for which the “recombinant barcode read abundance (log10)” value was 0.0309.

For the sequence “AGACCATCTTGGGTTCTAACCTGTTGCCT (site AGACCATCTAG)”, the “recombinant barcode read abundance (log10)” value was 0.751.

For the sequence “AGACCATCTTGGGTTCTAACCTGTTGCCT (site AGATCATCTAA)”, the “recombinant barcode read abundance (log10)” value worked out at 0.162.

On to “AGACCCTCTTGGGTTCTAACCTGTTGCCT (site AGACCCTCTAG)”, for which the “recombinant barcode read abundance (log10)” value amounted to 2.91.

For the sequence “AGACCCTCTTGGGTTCTAACCTGTTGCCT (site CGACCCTCTAG)”, the “recombinant barcode read abundance (log10)” value came to 0.728.

“AGACCCTCTTGGGTTCTAACCTGTTGCCT (site GGACCCTCTAG)”: the “recombinant barcode read abundance (log10)” value was 0.304.

Regarding “AGACCCTCTTGGGTTCTAACCTGTTGCCT (site TGACCCTCTAG)”, the “recombinant barcode read abundance (log10)” value worked out at 1.3.

Consider “AGACGACCTTGGGTTCTAACCTGTTGCGG (site AGACGACCTCC)”, for which the “recombinant barcode read abundance (log10)” value came out at 2.95.

For “AGACGACCTTGGGTTCTAACCTGTTGCGG (site GTCATGTCTGA)”, the “recombinant barcode read abundance (log10)” value turned out to be 0.016.

Consider “AGACTAACTTGGGTTCTAACCTGTTGCCT (site AAACTAACTAG)”, for which the “recombinant barcode read abundance (log10)” value came out at 0.124.

With “AGACTAACTTGGGTTCTAACCTGTTGCCT (site ACACTAACTAG)”, the “recombinant barcode read abundance (log10)” value was 0.0816.

Consider “AGACTAACTTGGGTTCTAACCTGTTGCCT (site AGACTAACTAG)”, for which the “recombinant barcode read abundance (log10)” value is 1.54.

On to “AGACTAACTTGGGTTCTAACCTGTTGCCT (site ATACTAACTAG)”, for which the “recombinant barcode read abundance (log10)” value came out at 0.29.

In the case of “AGACTCCCTTGGGTTCTAACCTGTTGCAC (site ACACGCCCTGT)”, the “recombinant barcode read abundance (log10)” value stood at 0.0745.

Take “AGACTCCCTTGGGTTCTAACCTGTTGCAC (site AGACTCCCTGT)”: the “recombinant barcode read abundance (log10)” value came out at 2.08.

Turning to “AGACTGACTTGGGTTCTAACCTGTTGCGG (site AGACTGACTCC)”, the “recombinant barcode read abundance (log10)” value was found to be 2.18.

In the case of “AGACTGACTTGGGTTCTAACCTGTTGCGG (site TCCAAATCTAG)”, the “recombinant barcode read abundance (log10)” value turned out to be 0.232.

“AGACTGGCTTGGGTTCTAACCTGTTGCCT (site AGACTGGCTAG)”: the “recombinant barcode read abundance (log10)” value came to 1.03.

Regarding “AGACTGGCTTGGGTTCTAACCTGTTGCCT (site CGACAGGCTAG)”, the “recombinant barcode read abundance (log10)” value is 0.176.

As for “AGAGAGGCTTGGGTTCTAACCTGTTGCGG (site AGAGAGGCTCC)”, the “recombinant barcode read abundance (log10)” value was found to be 1.82.

Consider “AGAGAGGCTTGGGTTCTAACCTGTTGCGG (site CGAGAGTCTCC)”, for which the “recombinant barcode read abundance (log10)” value is 0.125.

As to “AGAGAGTCTTGGGTTCTAACCTGTTGCTT (site AGAGAGTCTAA)”, the “recombinant barcode read abundance (log10)” value came out at 1.99.

For “AGAGAGTCTTGGGTTCTAACCTGTTGCTT (site ATAGAGTCTAA)”, the “recombinant barcode read abundance (log10)” value was determined as 0.602.

Regarding “AGAGCGACTTGGGTTCTAACCTGTTGCCT (site AGAGAGACTAG)”, the “recombinant barcode read abundance (log10)” value stood at 0.127.

Regarding “AGAGCGACTTGGGTTCTAACCTGTTGCCT (site AGAGCGACTAG)”, the “recombinant barcode read abundance (log10)” value was determined as 0.727.

As for “AGAGCGACTTGGGTTCTAACCTGTTGCCT (site AGAGGGACTAG)”, the “recombinant barcode read abundance (log10)” value turned out to be 0.587.

Consider “AGAGCGACTTGGGTTCTAACCTGTTGCCT (site AGAGTGACTAG)”, for which the “recombinant barcode read abundance (log10)” value came out at 0.0332.

As to “AGAGCGACTTGGGTTCTAACCTGTTGCTA (site AGAGCGACTTA)”, the “recombinant barcode read abundance (log10)” value stood at 0.654.
